Experimental data as given in US20150219624A1, “METHODS FOR IDENTIFYING ANTI-CANCER COMPOUNDS” (MEMORIAL SLOAN KETTERING CANCER CENTER, priority 2013, published 2015).
“And” between values parts separate entries of the source, which are not always exact repeats. Equal entries are not always repeated.

Assay: In vivo toxicity studies (body and organ weights, hematology, clinical chemistry, histopathology)
Details: for CHOL, % ChVh / Ca, % ChVh / Cl, % ChVh / GLUC, % ChVh / K, % ChVh / Na, % ChVh / Na/K, % ChVh / P, % ChVh / CHOL, Mean / Ca, Mean / Cl, Mean / GLUC, Mean / K, Mean / Na, Mean / P, Mean: 0.2 mg/kg Female
Method: Toxicity studies. Eight week-old C57Bl/6NTac female mice were randomly assigned to either control or treatment groups. Each treatment group received one daily dose of test article through i.p. injection over 5 consecutive days. Toxicity was monitored by weight loss and daily clinical observation for the 14 days following test article administration. 24 hours after the last test article administration 4 mice in each group were sacrificed and clinical chemistry, hematology and tissue specific histopathology were done at autopsy. The remaining mice (n=2 per group) were kept under observation for an additional 13 days; at that point all mice were sacrificed and clinical chemistry, hematology and tissue specific histopathology were done at time of autopsy.
D) KOPT-K1 xenograft studies.

[1] = 0.2 mg/kg, female, Day 5, % change of mean vs vehicle
[2] = 0.2 mg/kg, female, Day 5, fold change of mean vs vehicle
[3] = 0.2 mg/kg, female, Day 5, group mean
[4] = 0.2 mg/kg, female, Day 5, individual animals

(±)-CR-31-B
CHOL, % ChVh (Day 5, change vs vehicle): 0.0% | Ca, % ChVh (Day 5, change vs vehicle): 2.2% | Cl, % ChVh (Day 5, change vs vehicle): 0.6% | GLUC, % ChVh (Day 5, change vs vehicle): 1.8% | K, % ChVh (Day 5, change vs vehicle): −4.5% | Na, % ChVh (Day 5, change vs vehicle): −0.2% | Na/K, % ChVh (Day 5, change vs vehicle): 1.4% | P, % ChVh (Day 5, change vs vehicle): −14.6% | CHOL, Mean (Day 5, group mean, N 4): 66.0 mg/dL | Ca, Mean (Day 5, group mean, N 4): 9.1 mg/dL | Cl, Mean (Day 5, group mean, N 4): 114.0 mEq/L | GLUC, Mean (Day 5, group mean, N 4): 297.3 mg/dL | K, Mean (Day 5, group mean, N 4): 4.2 mEq/L | Na, Mean (Day 5, group mean, N 4): 149.0 mEq/L | P, Mean (Day 5, group mean, N 4): 7.0 mg/dL | CHOL, % ChVh (Day 19, change vs vehicle): −2.3% | Ca, % ChVh (Day 19, change vs vehicle): −3.2% | Cl, % ChVh (Day 19, change vs vehicle): −1.3% | GLUC, % ChVh (Day 19, change vs vehicle): −7.9% | K, % ChVh (Day 19, change vs vehicle): −9.5% | Na, % ChVh (Day 19, change vs vehicle): 0.0% | Na/K, % ChVh (Day 19, change vs vehicle): 12.9% | P, % ChVh (Day 19, change vs vehicle): 50.0% | CHOL, Mean (Day 19, group mean, N 2): 65.0 mg/dL | Ca, Mean (Day 19, group mean, N 2): 9.2 mg/dL | Cl, Mean (Day 19, group mean, N 2): 114.5 mEq/L | GLUC, Mean (Day 19, group mean, N 2): 240.5 mg/dL | K, Mean (Day 19, group mean, N 2): 3.8 mEq/L | Na, Mean (Day 19, group mean, N 2): 148.0 mEq/L | P, Mean (Day 19, group mean, N 2): 10.2 mg/dL | ALB % ChVh [1]: 3.3% | BASO % % ChVh [1]: −72.7% | BASO (K/uL) % ChVh [1]: −100.0% | BUN % ChVh [1]: 3.0% | Body Weight % ChVh [1]: −3.8% | CRTN % ChVh [1]: 11.1% | EOS % % ChVh [1]: −70.0% | EOS (K/uL) % ChVh [1]: 0.0% | GLOB % ChVh [1]: 5.9% | HCT % % ChVh [1]: 3.4% | HGB % ChVh [1]: 4.4% | LYM % % ChVh [1]: −14.6% | LYM (K/uL) % ChVh [1]: −21.2% | Left Kidney (% body wt) % ChVh [1]: −10.5% | Left Kidney (gm) % ChVh [1]: −12.5% | Liver (% body wt) % ChVh [1]: 2.1% | Liver (gm) % ChVh [1]: −1.6% | MCH % ChVh [1]: 2.5% | MCHC % ChVh [1]: 0.9% | MCV % ChVh [1]: 1.4% | MONO % % ChVh [1]: 21.2% | MONO (K/uL) % ChVh [1]: 8.3% | MPV % ChVh [1]: −5.6% | NEUT % % ChVh [1]: 97.8% | NEUT (K/uL) % ChVh [1]: 87.2% | PLT % ChVh [1]: −29.0% | RBC % ChVh [1]: 1.9% | RDW % % ChVh [1]: −0.6% | Right Kidney (% body wt) % ChVh [1]: −11.6% | Right Kidney (gm) % ChVh [1]: −15.4% | Spleen (% body wt) % ChVh [1]: 17.6% | Spleen (gm) % ChVh [1]: 13.6% | TBIL % ChVh [1]: 0.0% | TP % ChVh [1]: 4.3% | WBC % ChVh [1]: −7.7% | ALP FoldChVh [2]: 1.0 | ALT FoldChVh [2]: 1.3 | AST FoldChVh [2]: 1.2 | ALB [3]: 3.1 g/dL | ALP [3]: 124.3 U/L | ALT [3]: 25.0 U/L | AST [3]: 41.3 U/L | BASO [3]: 0.00 K/uL | BASO % [3]: 0.03% | BUN [3]: 27.3 mg/d L | Body Weight [3]: 16.680 gm | CRTN [3]: 0.20 mg/dL | EOS [3]: 0.01 K/uL | EOS % [3]: 0.06% | GGT [3]: 0.0 U/L | GLOB [3]: 1.8 g/dL | HCT % [3]: 45.6% | HGB [3]: 13.7 g/dL | LYM [3]: 4.31 K/uL | LYM % [3]: 72.97% | MCH [3]: 15.3 pg | MCHC [3]: 30.0 g/dL | MCV [3]: 50.9 fL | MONO [3]: 0.13 K/uL | MONO % [3]: 2.17% | MPV [3]: 4.3 fL | NEUT [3]: 1.46 K/uL | NEUT % [3]: 24.77% | PLT [3]: 725.8 K/uL | RBC [3]: 8.96 M/uL | RDW % [3]: 15.8% | TBIL [3]: 0.18 mg/d L | TP [3]: 4.9 g/dL | WBC [3]: 5.91 K/uL | ALB [4]: 3.3 g/dL and 3.0 g/dL and 2.9 g/dL and 3.1 g/dL | ALP [4]: 116 U/L and 114 U/L and 123 U/L and 144 U/L | ALT [4]: 26 U/L and 20 U/L (2×) and 34 U/L | AST [4]: 51 U/L and 35 U/L (2×) and 44 U/L | BASO [4]: 0.00 K/uL | BASO % [4]: 0.07% and 0.04% and 0.00% (2×) | BUN [4]: 27 mg/d L (2×) and 26 mg/d L and 29 mg/d L | Body Weight [4]: 15.962 gm and 17.217 gm and 17.463 gm and 16.078 gm | CHOL [4]: 68 mg/dL and 66 mg/dL (2×) and 64 mg/dL | CRTN [4]: 0.2 mg/dL | Ca [4]: 8.9 mg/dL and 9.0 mg/dL and 9.3 mg/dL (2×) | Cl [4]: 116 mEq/L and 113 mEq/L (2×) and 114 mEq/L | EOS [4]: 0.00 K/uL (2×) and 0.01 K/uL (2×) | EOS % [4]: 0.01% and 0.14% and 0.00% and 0.10% | GGT [4]: 0 U/L | GLOB [4]: 1.8 g/dL (3×) and 1.9 g/dL | GLUC [4]: 270 mg/dL and 335 mg/dL and 261 mg/dL and 323 mg/dL | HCT % [4]: 48.3% and 45.1% and 43.9% and 45.0% | HGB [4]: 14.3 g/dL and 13.8 g/dL and 13.0 g/dL and 13.5 g/dL | K [4]: 4.6 mEq/L and 4.0 mEq/L and 4.4 mEq/L and 3.9 mEq/L | LYM [4]: 3.64 K/uL and 4.96 K/uL and 3.49 K/uL and 5.13 K/uL | LYM % [4]: 76.21% and 71.86% and 70.06% and 73.76% | Left Kidney [4]: 0.108 gm and 0.133 gm and 0.138 gm and 0.125 gm and 0.75 % body wt and 0.77 % body wt and 0.79 % body wt and 0.78 % body wt | Liver [4]: 0.807 gm and 0.969 gm and 0.914 gm and 0.843 gm and 5.06 % body wt and 5.63 % body wt and 5.23 % body wt and 5.24 % body wt | MCH [4]: 15.4 Pg (2×) and 15.0 Pg and 15.2 Pg | MCHC [4]: 29.6 g/dL (2×) and 30.6 g/dL and 30.0 g/dL | MCV [4]: 51.9 fL and 50.4 fL and 50.5 fL and 50.6 fL | MONO [4]: 0.08 K/uL and 0.24 K/uL and 0.09 K/uL and 0.12 K/uL | MONO % [4]: 1.77% and 3.45% and 1.74% and 1.70% | MPV [4]: 4.3 fL (3×) and 4.1 fL
